Results reported in paper PMC4577729, “7-(Pyrazol-4-yl)-3H-imidazo[4,5-b]pyridine-based derivatives for kinase inhibition: Co-crystallisation studies with Aurora-A reveal distinct differences in the orientation of the pyrazole N1-substituent” (Bioorganic & Medicinal Chemistry Letters, 2015).

Legend:
Aurora A = target: T1, Aurora A (Homo sapiens, UniProt O14965); assay: Aurora-A microfluidic kinase assay; format: biochemical; conditions: biochemical; mean of two determinations or mean ±SD for n > 2
T1 sequence (O14965 1-403): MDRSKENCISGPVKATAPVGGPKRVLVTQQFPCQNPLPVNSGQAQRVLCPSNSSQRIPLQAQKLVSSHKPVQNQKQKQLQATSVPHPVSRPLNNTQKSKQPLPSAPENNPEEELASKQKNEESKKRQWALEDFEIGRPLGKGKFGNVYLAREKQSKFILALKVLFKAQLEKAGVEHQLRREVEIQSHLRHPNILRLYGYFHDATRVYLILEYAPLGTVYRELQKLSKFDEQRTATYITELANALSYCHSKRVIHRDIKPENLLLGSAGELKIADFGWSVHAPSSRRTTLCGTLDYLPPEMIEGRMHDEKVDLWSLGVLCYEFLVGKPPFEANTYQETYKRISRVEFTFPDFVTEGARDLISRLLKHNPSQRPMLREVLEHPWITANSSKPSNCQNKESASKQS
Excerpt: (§1) As part of our medicinal chemistry programme to discover selective inhibitors of Aurora-A,[12] we introduced the 1-benzyl-1H-pyrazol-4-yl moiety at C7 of the imidazo[4,5-b]pyridine scaffold to provide 7a (Table 1). We previously reported 1,3-dimethyl-1H-pyrazol-4-yl as a preferred substituent at the C2 position of the imidazo[4,5-b]pyridine scaffold[11] and this moiety was therefore incorporated into the design of 7a and analogues presented in this study. […] This in vitro profile prompted us to investigate this C7-pyrazole substituted imidazo[4,5-b]pyridine subseries in more detail. Firstly, we attempted to increase biochemical potency against Aurora-A, and also to improve microsomal stability.
(§2) [17] Aurora-A and Aurora-B IC50 values were determined by using a microfluidic assay which monitors the separation of a phosphorylated product from its substrate, as described in Ref. [12].

Aurora B = Aurora B (Homo sapiens, UniProt Q96GD4); assay: Aurora-B microfluidic kinase assay; conditions: biochemical; mean of two determinations or mean ±SD for n > 2
Aurora B, sequence (Q96GD4 whole entry): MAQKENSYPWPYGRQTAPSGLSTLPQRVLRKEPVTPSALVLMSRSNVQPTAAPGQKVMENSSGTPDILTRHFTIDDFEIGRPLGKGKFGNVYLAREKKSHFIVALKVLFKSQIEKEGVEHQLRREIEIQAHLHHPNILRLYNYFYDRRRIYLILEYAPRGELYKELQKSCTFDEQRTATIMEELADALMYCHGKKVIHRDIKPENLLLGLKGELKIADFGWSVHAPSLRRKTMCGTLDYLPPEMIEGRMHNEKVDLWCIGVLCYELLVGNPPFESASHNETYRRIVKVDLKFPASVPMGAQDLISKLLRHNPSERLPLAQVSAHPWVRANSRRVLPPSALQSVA
Excerpt: as §1, §2

[1] = Mouse liver microsomal stability; format: in vitro ADME; conditions: percentage of compound metabolised after a 30 min incubation, mouse liver microsomes
Procedure: (§3) [18] MLM and HLM microsomal stabilities were determined as described in Ref. [12].

[2] = Human liver microsomal stability; format: in vitro ADME; conditions: percentage of compound metabolised after a 30 min incubation, human liver microsomes
Procedure: as §3

[3] = tested on: SW620 human colon carcinoma cells; assay: SW620 cell growth inhibition; format: cell-based; conditions: 72 h incubation
Excerpt: as §1

[4] = tested on: HCT116 human colon carcinoma cells; assay: HCT116 cell growth inhibition; format: cell-based; conditions: 72 h incubation
Excerpt: as §1

BTK = BTK (Homo sapiens, UniProt Q06187); assay: Kinase selectivity profiling; format: biochemical; conditions: 1 µM, assay duplicates
Procedure: (§4) [20] Kinase selectivity profiling for compounds 7a, 7d, 14d and 14g was carried out at the International Centre for Protein Kinase Profiling, Division of Signal Transduction Therapy, University of Dundee.
(§5) Table S1: Kinase selectivity profiling of compounds 7a and 7d in a 102-kinase panel screened at a concentration of 1 µM.
(§6) Table S2: Kinase selectivity profiling of compounds 14d and 14g in a 105-kinase panel screened at a concentration of 1 µM.

CDK2-Cyclin A = CDK2-Cyclin A (Homo sapiens, UniProt P24941); assay: Kinase selectivity profiling; format: biochemical; conditions: 1 µM, assay duplicates
Procedure: as §4, §5, §6

CK1 = CK1 (Homo sapiens, UniProt P48730); assay: Kinase selectivity profiling; format: biochemical; conditions: 1 µM, assay duplicates
Procedure: as §4, §5, §6

CK2 = CK2 (Homo sapiens, UniProt P68400); assay: Kinase selectivity profiling; format: biochemical; conditions: 1 µM, assay duplicates
Procedure: as §4, §5, §6

EPH-A4 = EPH-A4 (Homo sapiens, UniProt P54764); assay: Kinase selectivity profiling; format: biochemical; conditions: 1 µM, assay duplicates
EPH-A4, sequence (P54764 20-986): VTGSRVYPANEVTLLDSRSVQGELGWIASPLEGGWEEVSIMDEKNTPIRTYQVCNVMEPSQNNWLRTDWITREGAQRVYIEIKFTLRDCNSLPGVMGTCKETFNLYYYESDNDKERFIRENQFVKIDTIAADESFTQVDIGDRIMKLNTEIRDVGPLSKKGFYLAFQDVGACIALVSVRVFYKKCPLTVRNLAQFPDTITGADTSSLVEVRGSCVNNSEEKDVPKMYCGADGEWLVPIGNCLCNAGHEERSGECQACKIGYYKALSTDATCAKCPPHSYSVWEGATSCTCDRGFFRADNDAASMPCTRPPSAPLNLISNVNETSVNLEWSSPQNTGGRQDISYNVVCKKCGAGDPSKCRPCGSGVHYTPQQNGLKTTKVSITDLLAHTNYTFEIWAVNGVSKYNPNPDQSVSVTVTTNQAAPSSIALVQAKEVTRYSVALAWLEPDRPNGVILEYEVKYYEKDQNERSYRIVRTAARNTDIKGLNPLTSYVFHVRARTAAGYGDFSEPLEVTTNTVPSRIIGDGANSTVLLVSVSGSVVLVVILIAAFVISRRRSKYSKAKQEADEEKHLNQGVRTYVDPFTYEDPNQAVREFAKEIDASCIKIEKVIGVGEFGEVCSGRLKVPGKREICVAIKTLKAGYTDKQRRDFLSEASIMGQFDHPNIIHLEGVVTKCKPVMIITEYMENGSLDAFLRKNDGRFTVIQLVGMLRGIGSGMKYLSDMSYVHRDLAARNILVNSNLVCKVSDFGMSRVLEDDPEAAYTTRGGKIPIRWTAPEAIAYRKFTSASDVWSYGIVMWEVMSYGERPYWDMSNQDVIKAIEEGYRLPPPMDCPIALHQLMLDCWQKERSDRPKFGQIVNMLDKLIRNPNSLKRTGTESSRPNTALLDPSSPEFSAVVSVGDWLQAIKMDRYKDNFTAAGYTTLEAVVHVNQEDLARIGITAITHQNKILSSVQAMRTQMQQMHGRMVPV
Procedure: as §4, §5, §6

HER4 = HER4 (Homo sapiens, UniProt Q15303); assay: Kinase selectivity profiling; format: biochemical; conditions: 1 µM, assay duplicates
HER4, sequence (Q15303 26-1308): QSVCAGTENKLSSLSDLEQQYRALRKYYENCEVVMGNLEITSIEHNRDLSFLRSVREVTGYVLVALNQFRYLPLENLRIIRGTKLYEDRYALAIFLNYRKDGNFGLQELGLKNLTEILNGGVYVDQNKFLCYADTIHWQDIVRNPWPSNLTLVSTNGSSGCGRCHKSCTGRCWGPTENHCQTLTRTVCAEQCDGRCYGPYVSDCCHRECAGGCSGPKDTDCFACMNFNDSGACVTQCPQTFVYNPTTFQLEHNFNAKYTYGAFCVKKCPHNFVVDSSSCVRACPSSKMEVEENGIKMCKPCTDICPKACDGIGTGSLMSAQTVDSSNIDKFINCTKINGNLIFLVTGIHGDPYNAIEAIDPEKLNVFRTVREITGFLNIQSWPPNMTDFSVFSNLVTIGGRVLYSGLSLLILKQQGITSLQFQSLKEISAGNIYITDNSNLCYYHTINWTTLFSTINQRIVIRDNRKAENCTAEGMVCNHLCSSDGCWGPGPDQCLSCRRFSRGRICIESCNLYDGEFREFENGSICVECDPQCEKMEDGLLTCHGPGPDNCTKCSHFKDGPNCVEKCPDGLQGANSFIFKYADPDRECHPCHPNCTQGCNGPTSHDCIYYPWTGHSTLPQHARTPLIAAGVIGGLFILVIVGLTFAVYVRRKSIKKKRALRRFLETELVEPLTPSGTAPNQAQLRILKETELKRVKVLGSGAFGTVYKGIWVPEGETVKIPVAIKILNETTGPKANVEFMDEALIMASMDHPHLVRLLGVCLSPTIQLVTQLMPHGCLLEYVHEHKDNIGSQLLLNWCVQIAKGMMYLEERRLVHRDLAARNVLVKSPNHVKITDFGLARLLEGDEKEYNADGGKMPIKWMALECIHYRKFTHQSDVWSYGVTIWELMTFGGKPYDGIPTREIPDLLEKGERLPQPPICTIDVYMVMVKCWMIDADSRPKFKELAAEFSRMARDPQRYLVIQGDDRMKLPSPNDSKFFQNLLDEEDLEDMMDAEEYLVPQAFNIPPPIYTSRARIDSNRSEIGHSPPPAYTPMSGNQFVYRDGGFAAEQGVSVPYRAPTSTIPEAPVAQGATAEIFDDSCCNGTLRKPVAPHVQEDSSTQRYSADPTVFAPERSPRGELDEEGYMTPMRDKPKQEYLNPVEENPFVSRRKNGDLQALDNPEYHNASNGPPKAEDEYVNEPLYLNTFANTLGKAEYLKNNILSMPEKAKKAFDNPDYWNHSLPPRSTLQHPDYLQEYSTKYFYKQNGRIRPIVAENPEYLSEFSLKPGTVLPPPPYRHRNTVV
Procedure: as §4, §5, §6

HIPK3 = HIPK3 (Homo sapiens, UniProt Q9H422); assay: Kinase selectivity profiling; format: biochemical; conditions: 1 µM, assay duplicates
Procedure: as §4, §5, §6

IKKb = IKKb (Homo sapiens, UniProt O14920); assay: Kinase selectivity profiling; format: biochemical; conditions: 1 µM, assay duplicates
Procedure: as §4, §5, §6

JNK1 = JNK1 (Homo sapiens, UniProt P45983); assay: Kinase selectivity profiling; format: biochemical; conditions: 1 µM, assay duplicates
Procedure: as §4, §5, §6

Lck = Lck (Homo sapiens, UniProt P06239); assay: Kinase selectivity profiling; format: biochemical; conditions: 1 µM, assay duplicates
Lck, sequence (P06239 whole entry): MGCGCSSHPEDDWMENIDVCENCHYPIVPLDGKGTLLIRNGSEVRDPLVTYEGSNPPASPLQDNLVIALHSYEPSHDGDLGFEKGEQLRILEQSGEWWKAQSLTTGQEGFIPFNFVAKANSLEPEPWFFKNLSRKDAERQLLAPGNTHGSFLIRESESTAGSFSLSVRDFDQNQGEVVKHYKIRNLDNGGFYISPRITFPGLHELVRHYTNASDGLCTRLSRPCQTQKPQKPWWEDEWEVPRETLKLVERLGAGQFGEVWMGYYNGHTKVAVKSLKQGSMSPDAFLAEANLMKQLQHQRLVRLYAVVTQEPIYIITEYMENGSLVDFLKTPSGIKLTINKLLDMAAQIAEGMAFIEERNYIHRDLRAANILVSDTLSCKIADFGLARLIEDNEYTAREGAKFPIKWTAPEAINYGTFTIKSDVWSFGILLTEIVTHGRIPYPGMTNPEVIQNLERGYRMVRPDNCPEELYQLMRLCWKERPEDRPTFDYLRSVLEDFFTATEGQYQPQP
Procedure: as §4, §5, §6

MAPKAP-K3 = MAPKAP-K3 (Homo sapiens, UniProt Q16644); assay: Kinase selectivity profiling; format: biochemical; conditions: 1 µM, assay duplicates
Procedure: as §4, §5, §6

MARK2 = MARK2 (Homo sapiens, UniProt Q7KZI7); assay: Kinase selectivity profiling; format: biochemical; conditions: 1 µM, assay duplicates
MARK2, sequence (Q7KZI7 whole entry): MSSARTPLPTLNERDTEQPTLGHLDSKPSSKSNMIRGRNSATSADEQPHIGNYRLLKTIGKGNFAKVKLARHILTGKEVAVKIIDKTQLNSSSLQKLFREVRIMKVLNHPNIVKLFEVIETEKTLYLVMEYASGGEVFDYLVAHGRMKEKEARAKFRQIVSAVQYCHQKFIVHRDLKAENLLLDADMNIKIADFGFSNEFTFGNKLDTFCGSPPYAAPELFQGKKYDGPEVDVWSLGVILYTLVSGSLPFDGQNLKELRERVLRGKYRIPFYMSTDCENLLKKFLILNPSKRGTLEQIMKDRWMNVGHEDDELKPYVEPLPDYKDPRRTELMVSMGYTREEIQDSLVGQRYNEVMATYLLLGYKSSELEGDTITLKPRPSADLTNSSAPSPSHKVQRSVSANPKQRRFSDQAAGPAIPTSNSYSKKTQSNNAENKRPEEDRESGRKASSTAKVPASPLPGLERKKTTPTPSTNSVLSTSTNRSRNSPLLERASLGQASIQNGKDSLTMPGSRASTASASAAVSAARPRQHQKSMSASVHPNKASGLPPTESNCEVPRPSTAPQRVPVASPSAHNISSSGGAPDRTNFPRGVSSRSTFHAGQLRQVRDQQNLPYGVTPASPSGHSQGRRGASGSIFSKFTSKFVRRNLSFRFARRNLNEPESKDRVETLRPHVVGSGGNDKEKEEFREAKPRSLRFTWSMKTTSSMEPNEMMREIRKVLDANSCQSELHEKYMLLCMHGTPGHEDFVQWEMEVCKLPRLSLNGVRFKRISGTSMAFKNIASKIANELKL
Procedure: as §4, §5, §6

MARK3 = MARK3 (Homo sapiens, UniProt P27448); assay: Kinase selectivity profiling; format: biochemical; conditions: 1 µM, assay duplicates
Procedure: as §4, §5, §6

MST4 = MST4 (Homo sapiens, UniProt Q9P289); assay: Kinase selectivity profiling; format: biochemical; conditions: 1 µM, assay duplicates
Procedure: as §4, §5, §6

NEK2a = NEK2a (Homo sapiens, UniProt P51955); assay: Kinase selectivity profiling; format: biochemical; conditions: 1 µM, assay duplicates
NEK2a, sequence (P51955 whole entry): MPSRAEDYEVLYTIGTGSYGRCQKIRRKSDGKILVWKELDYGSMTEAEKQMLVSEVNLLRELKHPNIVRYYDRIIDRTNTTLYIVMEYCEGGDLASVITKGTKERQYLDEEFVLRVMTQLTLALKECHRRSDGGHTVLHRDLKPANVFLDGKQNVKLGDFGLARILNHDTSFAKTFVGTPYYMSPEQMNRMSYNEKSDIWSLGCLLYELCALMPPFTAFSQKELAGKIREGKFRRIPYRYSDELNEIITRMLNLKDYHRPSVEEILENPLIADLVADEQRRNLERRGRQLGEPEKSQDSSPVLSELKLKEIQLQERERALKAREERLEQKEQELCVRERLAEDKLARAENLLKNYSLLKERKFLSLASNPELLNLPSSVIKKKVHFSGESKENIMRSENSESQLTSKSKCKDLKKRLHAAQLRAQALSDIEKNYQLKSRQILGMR
Procedure: as §4, §5, §6

PAK4 = PAK4 (Homo sapiens, UniProt O96013); assay: Kinase selectivity profiling; format: biochemical; conditions: 1 µM, assay duplicates
Procedure: as §4, §5, §6

PDK1 = PDK1 (Homo sapiens, UniProt O15530); assay: Kinase selectivity profiling; format: biochemical; conditions: 1 µM, assay duplicates
Procedure: as §4, §5, §6

PKCa = PKCa (Homo sapiens, UniProt P17252); assay: Kinase selectivity profiling; format: biochemical; conditions: 1 µM, assay duplicates
Procedure: as §4, §5, §6

PKCz = PKCz (Homo sapiens, UniProt Q05513); assay: Kinase selectivity profiling; format: biochemical; conditions: 1 µM, assay duplicates
Procedure: as §4, §5, §6

PLK1 = PLK1 (Homo sapiens, UniProt P53350); assay: Kinase selectivity profiling; format: biochemical; conditions: 1 µM, assay duplicates
Procedure: as §4, §5, §6

ROCK 2 = ROCK 2 (Homo sapiens, UniProt O75116); assay: Kinase selectivity profiling; format: biochemical; conditions: 1 µM, assay duplicates
Procedure: as §4, §5, §6

RSK1 = RSK1 (Homo sapiens, UniProt Q15418); assay: Kinase selectivity profiling; format: biochemical; conditions: 1 µM, assay duplicates
Procedure: as §4, §5, §6

RSK2 = RSK2 (Homo sapiens, UniProt P51812); assay: Kinase selectivity profiling; format: biochemical; conditions: 1 µM, assay duplicates
RSK2, sequence (P51812 whole entry): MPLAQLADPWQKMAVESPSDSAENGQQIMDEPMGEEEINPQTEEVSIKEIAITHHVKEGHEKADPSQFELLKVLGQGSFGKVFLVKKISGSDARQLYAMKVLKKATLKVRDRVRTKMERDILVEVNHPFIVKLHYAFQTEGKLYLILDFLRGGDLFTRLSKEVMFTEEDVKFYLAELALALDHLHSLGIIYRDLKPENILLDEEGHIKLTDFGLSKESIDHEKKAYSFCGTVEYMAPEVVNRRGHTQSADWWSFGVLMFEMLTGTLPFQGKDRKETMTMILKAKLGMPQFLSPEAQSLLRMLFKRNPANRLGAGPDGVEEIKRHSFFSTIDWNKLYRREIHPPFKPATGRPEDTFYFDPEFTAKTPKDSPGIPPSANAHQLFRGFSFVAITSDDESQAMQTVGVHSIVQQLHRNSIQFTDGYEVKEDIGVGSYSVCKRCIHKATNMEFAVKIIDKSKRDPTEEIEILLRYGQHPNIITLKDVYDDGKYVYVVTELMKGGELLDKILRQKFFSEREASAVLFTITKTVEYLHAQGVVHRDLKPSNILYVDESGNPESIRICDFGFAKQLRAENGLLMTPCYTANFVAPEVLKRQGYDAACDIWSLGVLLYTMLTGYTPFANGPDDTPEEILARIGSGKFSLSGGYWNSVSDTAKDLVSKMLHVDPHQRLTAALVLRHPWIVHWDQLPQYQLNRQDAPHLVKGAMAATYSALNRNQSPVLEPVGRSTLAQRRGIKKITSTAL
Procedure: as §4, §5, §6

SYK = SYK (Homo sapiens, UniProt P43405); assay: Kinase selectivity profiling; format: biochemical; conditions: 1 µM, assay duplicates
Procedure: as §4, §5, §6

TTK = TTK (Homo sapiens, UniProt P33981); assay: Kinase selectivity profiling; format: biochemical; conditions: 1 µM, assay duplicates
Procedure: as §4, §5, §6

p38b MAPK = p38b MAPK (Homo sapiens, UniProt Q15759); assay: Kinase selectivity profiling; format: biochemical; conditions: 1 µM, assay duplicates
Procedure: as §4, §5, §6

Row | SMILES | IC50 (Aurora A) [nM] | IC50 (Aurora B) [nM] | MLM % met/30 min [1] [%] | HLM % met/30 min [2] [%] | GI50 [3] [nM] | GI50 [4] [nM] | BTK % activity remaining (BTK) [%] | CDK2-Cyclin A % activity remaining (CDK2-Cyclin A) [%] | CK1 % activity remaining (CK1) [%] | CK2 % activity remaining (CK2) [%] | EPH-A4 % activity remaining (EPH-A4) [%] | HER4 % activity remaining (HER4) [%] | HIPK3 % activity remaining (HIPK3) [%] | IKKb % activity remaining (IKKb) [%] | JNK1 % activity remaining (JNK1) [%] | Lck % activity remaining (Lck) [%] | MAPKAP-K3 % activity remaining (MAPKAP-K3) [%] | MARK2 % activity remaining (MARK2) [%] | MARK3 % activity remaining (MARK3) [%] | MST4 % activity remaining (MST4) [%] | further results
1 | Cc1cc(Cn2cc(-c3c(Cl)cnc4[nH]c(-c5cn(C)nc5C)nc34)cn2)no1 [Compound 14d] | 35 | 75 | 35 | 37 | 350 | 340 | 33 | 1 | 78 | 57 | 51 | 73 | 49 | 63 | 45 | 34 | 103 | 28 | 19 | 56 | NEK2a % activity remaining (NEK2a): 71%; PAK4 % activity remaining (PAK4): 25%; PDK1 % activity remaining (PDK1): 49%; PKCa % activity remaining (PKCa): 83%; PKCz % activity remaining (PKCz): 96%; PLK1 % activity remaining (PLK1): 115%; ROCK 2 % activity remaining (ROCK 2): 44%; RSK1 % activity remaining (RSK1): 28%; RSK2 % activity remaining (RSK2): 20%; SYK % activity remaining (SYK): 49%; TTK % activity remaining (TTK): 42%; p38b MAPK % activity remaining (p38b MAPK): 91%
2 | Cc1nn(C)cc1-c1nc2c(-c3cnn(Cc4ccccc4)c3)c(Cl)cnc2[nH]1 [Compound 7a] | 212 ± 107 | 461 ± 147 | 40 | 43 | 180 | 150 | 46 | 1 | 63 | 62 | 54 | 89 | 9 | 48 | 13 | 61 | 69 | 31 | 20 | 64 | NEK2a % activity remaining (NEK2a): 67%; PAK4 % activity remaining (PAK4): 23%; PDK1 % activity remaining (PDK1): 52%; PKCa % activity remaining (PKCa): 63%; PKCz % activity remaining (PKCz): 103%; PLK1 % activity remaining (PLK1): 75%; ROCK 2 % activity remaining (ROCK 2): 36%; RSK1 % activity remaining (RSK1): 25%; RSK2 % activity remaining (RSK2): 42%; SYK % activity remaining (SYK): 37%; TTK % activity remaining (TTK): 29%; p38b MAPK % activity remaining (p38b MAPK): 91%
